Like-named read-outs stand apart in the source and are kept apart here.
How the values were obtained:
[1] = Metabolic stability in rat liver microsome with β-NAD+ (Example 27); type: in vitro ADME; settings: 37° C.
Protocol: A test tube containing 0.1 mol/L potassium phosphate buffer (345 μL, pH 7.4) was cooled on ice, followed by addition of 5 mg/mL rat liver microsome (50 μL), 0.1 mol/L magnesium chloride (50 μL) and a test compound dissolved in ethanol (adjusted to 1 mg/mL, 5 μL). After pre-incubation at 37° C. for 5 minutes, 10 mM β-Nicotinamide-adenine dinucleotide, oxidized form (β-NAD^+) was added to initiate the reaction. The reaction was continued at 37° C. for 0, 5 and 15 minutes, followed by addition of 0.1 mol/L hydrochloric acid (100 μL) and diethyl ether (5 mL) to stop the reaction. The reaction mixture was stirred for 10 minutes and then centrifuged at 3000 rpm for 10 minutes. The upper organic layer (4.5 mL) was transferred to another test tube, evaporated to dryness under a nitrogen stream, dissolved in 40% acetonitrile (200 μL) and then measured for the peak area of the test compound by high performance liquid chromatography. The residual percentage of the test compound at a given point in time was calculated using the following equation: Residual (%)=[(peak area of the test compound at a given time point)/(peak area of the test compound at 0 minutes)]×100

human androgen receptor [2] = target: T1, human androgen receptor (Homo sapiens, UniProt P10275); test: Androgen receptor reporter gene assay, antagonistic effects (Example 26); type: cell-based
T1 construct: expressed in transfected cells; host or cells: HeLa cells
T1 sequence (P10275 1-920): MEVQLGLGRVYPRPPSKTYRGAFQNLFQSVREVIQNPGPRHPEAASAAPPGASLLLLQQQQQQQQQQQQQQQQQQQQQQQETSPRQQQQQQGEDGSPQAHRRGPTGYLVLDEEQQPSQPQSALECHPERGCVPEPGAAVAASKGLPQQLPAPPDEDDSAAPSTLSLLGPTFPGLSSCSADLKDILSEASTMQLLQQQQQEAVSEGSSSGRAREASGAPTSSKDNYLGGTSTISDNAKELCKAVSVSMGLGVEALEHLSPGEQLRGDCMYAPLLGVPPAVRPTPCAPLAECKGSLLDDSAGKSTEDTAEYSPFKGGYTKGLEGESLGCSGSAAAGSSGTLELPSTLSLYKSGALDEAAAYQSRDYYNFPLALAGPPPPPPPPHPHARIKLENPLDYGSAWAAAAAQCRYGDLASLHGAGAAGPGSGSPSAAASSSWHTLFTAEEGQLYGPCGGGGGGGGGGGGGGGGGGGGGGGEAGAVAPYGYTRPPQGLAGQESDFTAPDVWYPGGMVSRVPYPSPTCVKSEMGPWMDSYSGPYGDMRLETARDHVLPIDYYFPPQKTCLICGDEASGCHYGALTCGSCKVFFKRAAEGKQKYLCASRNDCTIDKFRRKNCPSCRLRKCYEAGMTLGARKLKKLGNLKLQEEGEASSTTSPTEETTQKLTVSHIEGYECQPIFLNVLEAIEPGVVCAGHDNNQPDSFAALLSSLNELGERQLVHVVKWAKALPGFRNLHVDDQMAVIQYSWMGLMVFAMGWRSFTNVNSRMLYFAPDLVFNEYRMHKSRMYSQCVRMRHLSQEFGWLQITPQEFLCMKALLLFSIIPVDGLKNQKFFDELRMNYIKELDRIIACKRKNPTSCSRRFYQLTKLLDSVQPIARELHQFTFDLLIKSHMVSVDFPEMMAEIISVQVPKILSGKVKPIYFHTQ
Protocol: (§1) Twenty-four hours before transfection, 1.0×10^5 HeLa cells are cultured in a 12-well microplate containing phenol red-free DMEM/5% DCC-FBS. The HeLa cells are then transfected with 500 ng/well MMTV-Luc vector, 100 ng/well pSG5-hAR and 5 ng/well Renilla Luc vector. Transfection is carried out in phenol red-free DMEM medium using 3 μL/well lipofectamine. Nine hours after transfection, the medium is replaced by phenol red-free DMEM/3% DCC-FBS supplemented with 0.1 nmol/L DHT and 1.0 μmol/L of the compound of Formula (I) or a salt or ester thereof according to the present invention. Forty-eight hours after replacement of the medium, the transcriptional activity is determined by a Dual-Luciferase Reporter Assay System according to the following equation: (transcriptional activity)=(firefly luciferase activity)/(Renilla luciferase activity). To effect this assay, reference may be made to J. Biol. Chem., vol. 270, p.
(§2) Twenty-four hours before transfection, 1.0×10^5 HeLa cells were cultured in a 12-well microplate containing phenol red-free DMEM/5% DCC-FBS. The HeLa cells were then transfected with 500 ng/well MMTV-Luc vector, 100 ng/well pSG5-hAR and 5 ng/well Renilla Luc vector. Transfection was carried out in phenol red-free DMEM medium using […] lipofectamine. […] Forty-eight hours after replacement of the medium, the transcriptional activity was determined by a Dual-Luciferase Reporter Assay System according to the following equation: (transcriptional activity)=(firefly luciferase activity)/(Renilla luciferase activity).

human androgen receptor [3] = target: T1, human androgen receptor; test: Androgen receptor reporter gene assay, agonistic effects (Example 25); type: cell-based; settings: HeLa cells transfected with MMTV-Luc and pSG5-hAR; 1-10000 nmol/L; 48 h; no DHT
Protocol: as §1, with “cells (purchased from Dainippon Pharmaceutical Co., Ltd.)” for “cells”, “Dulbecco's Modified Eagle Medium (phenol red-free DMEM) supplemented” for “DMEM/5% DCC-FBS. The HeLa cells are then transfected”, “charcoal-treated FBS (DCC-FBS; 5%). […]” for “500 ng/well MMTV-Luc vector, 100 ng/well pSG5-hAR and 5 ng/well Renilla Luc vector.”, “lipofectamine (Gibco BRL).” for “lipofectamine.”, “10” for “0.1 nmol/L DHT and 1.0”, “System (promega)” for “System”
as §2
The transcriptional activity thus determined was used to calculate agonist activity according to the following equation, which in turn was used to calculate a FI5 value (i.e., a concentration at which the compound provides a 5-fold increase in transcriptional activity as compared to the value obtained in the absence of the compound). Agonist activity=(transcriptional activity in the presence of the compound)/(transcriptional activity in the absence of the compound)

castrated rats = castrated rats continuously administered for two weeks; cited from earlier work
androgen receptor = androgen receptor (Homo sapiens, UniProt P10275); settings: concentration of 10 μM; cited from earlier work
[4] = prostate cancer patients undergoing treatment with flutamide; cited from earlier work
[5] = 50% inhibition of transcriptional activity induced by DHT (0.1 nmol/L), HeLa cells transfected with MMTV-Luc and pSG5-hAR, 48 h, read-out: IC50 value

## CN(C)C(=O)CCCCCCC[C@@H]1C[C@H]2CC(=O)CC[C@]2(C)[C@H]2CC[C@]3(C)[C@@H](O)CC[C@H]3[C@H]12 [Comparative Example, 17β-hydroxy-7α-{7-(N,N-dimethylaminocarbonyl)heptyl}-5α-androstan-3-one, reference compound]
[1]
  Residual (%) 5 minutes: 59.4%
  Residual (%) 15 minutes: 15.1%

## CC12CCC(=O)C=C1CC(CCCc1cccc(CCCCC(=O)O)c1)C1C2CCC2(C)C1CCC2(C)O (stereo not shown) [Example 24]
Human androgen receptor [2]; [5]
  IC50: 4040 nM
Human androgen receptor [3]
  FI5 value (concentration giving 5-fold increase in transcriptional activity): ND (a FI5 value cannot be calculated because the compound provides less than a 5-fold increase in transcriptional activity even at a concentration of 10000 nM)

## CC12CCC(=O)C=C1CC(CCCc1ccc(CCCCC(=O)O)cc1)C1C2CCC2(C)C1CCC2(C)O (stereo not shown) [Example 22]
Human androgen receptor [2]
  IC50: 717 nM
Human androgen receptor [3]
  FI5 value (concentration giving 5-fold increase in transcriptional activity): ND (a FI5 value cannot be calculated because the compound provides less than a 5-fold increase in transcriptional activity even at a concentration of 10000 nM)

## CC(=O)O[C@]1(C(C)=O)CC[C@H]2[C@@H]3C=C(Cl)C4=CC(=O)[C@@H]5C[C@@H]5[C@]4(C)[C@H]3CC[C@@]21C [cyproterone acetate]
Castrated rats
  prostate weight: increase in their prostate weight

## C[C@]12CCC(=O)C=C1C[C@@H](CCCCc1cccc(OCCCCC(=O)O)c1)[C@@H]1[C@@H]2CC[C@@]2(C)[C@H]1CC[C@]2(C)O [Example 1, 17β-hydroxy-17α-methyl-7α-(4-(3-(4-carboxy-butoxy)phenyl)butyl)-4-androsten-3-one]
Human androgen receptor [2]; [5]
  IC50: 333 nM
Human androgen receptor [3]
  FI5 value (concentration giving 5-fold increase in transcriptional activity): ND* (a FI5 value cannot be calculated because the compound provides less than a 5-fold increase in transcriptional activity even at a concentration of 10000 nM)

## CC(C)(O)C(=O)Nc1ccc([N+](=O)[O-])c(C(F)(F)F)c1 [Hydroxyflutamide]
Androgen receptor
  effect on transcriptional activity of androgen receptor: enhance the transcriptional activity of androgen receptor
[4]
  blood hydroxyflutamide levels: several

## CC12CCC(=O)C=C1CC(CCCc1cccc(OCCCC(=O)O)c1)C1C2CCC2(C)C1CCC2(C)O (stereo not shown) [Example 20]
Human androgen receptor [2]; [5]
  IC50: 815 nM
Human androgen receptor [3]
  FI5 value (concentration giving 5-fold increase in transcriptional activity): ND (a FI5 value cannot be calculated because the compound provides less than a 5-fold increase in transcriptional activity even at a concentration of 10000 nM)

## CC12CCC(=O)C=C1CC(CCCCc1cccc(OCCCCCC(=O)O)c1)C1C2CCC2(C)C1CCC2(C)O (stereo not shown) [Example 13]
Human androgen receptor [2]; [5]
  IC50: 529 nM
Human androgen receptor [3]
  FI5 value (concentration giving 5-fold increase in transcriptional activity): ND (a FI5 value cannot be calculated because the compound provides less than a 5-fold increase in transcriptional activity even at a concentration of 10000 nM)

## CC12CCC(=O)C=C1CC(CCCCCc1ccc(OCC(=O)O)cc1)C1C2CCC2(C)C1CCC2(C)O (stereo not shown) [Example 7]
Human androgen receptor [2]; [5]
  IC50: 5140 nM
Human androgen receptor [3]
  FI5 value (concentration giving 5-fold increase in transcriptional activity): ND (a FI5 value cannot be calculated because the compound provides less than a 5-fold increase in transcriptional activity even at a concentration of 10000 nM)

## C[C@]12CCC(=O)C=C1C[C@@H](CCCc1ccc(OCCCC(=O)O)cc1)[C@@H]1[C@@H]2CC[C@@]2(C)[C@H]1CC[C@]2(C)O [Example 18, 17β-hydroxy-17α-methyl-7α-(3-(4-(3-carboxy-propoxy)phenyl)propyl)-4-androsten-3-one]
Human androgen receptor [2]
  IC50: 664 nM
Human androgen receptor [3]
  FI5 value (concentration giving 5-fold increase in transcriptional activity): ND (a FI5 value cannot be calculated because the compound provides less than a 5-fold increase in transcriptional activity even at a concentration of 10000 nM)
[1]
  Residual (%) 5 minutes: 113.7%
  Residual (%) 15 minutes: 110.8%

## CC(=O)O[C@]1(C(C)=O)CC[C@H]2[C@@H]3C=C(Cl)C4=CC(=O)CC[C@]4(C)[C@H]3CC[C@@]21C [chlormadinone acetate]
Castrated rats
  prostate weight: increase in their prostate weight
